Experimental data taken from patent publication US20090082333A1, “REMEDY FOR XANTHOMA” (NATIONAL UNIVERSITY CORPORATION KOBE UNIVERSITY, priority 2005, published 2009).

System: WHHLMI rabbit
Test: Xanthomatosis-inhibiting activity in rabbit model (extent of limb xanthoma at digital joints)
Type: in vivo
Conditions: male WHHLMI rabbit, digital joints of forelegs and hind legs; for Distribution of Severity: − (no occurrence), count of limb xanthoma assessments: control 2; for Distribution of Severity: +++ (mass), count of limb xanthoma assessments: control 4; for Distribution of Severity: + (dotting of granule), count of limb xanthoma assessments: control 8; for Distribution of Severity: ++ (scattering), count of limb xanthoma assessments: control 26
Protocol: A vehicle or the test compound 1 was orally administered to a 2 months old male WHHLMI rabbit (10 to 11 animals/group) in an amount of 100, 200 mg/kg in a mixed diet for 32 weeks. After the administration for 32 weeks, xanthoma was evaluated at the digital joints of forelegs and hind legs (Table 1). The extent of limb xanthoma was assessed by classifying into four stages: no occurrence (−), dotting of granule (+), scattering (++), mass (+++)

[1] = 100 mg/kg orally in mixed diet for 32 weeks
[2] = 200 mg/kg orally in mixed diet for 32 weeks

COc1cccc([C@H]2O[C@H](CC(=O)N3CCC(CC(=O)O)CC3)C(=O)N(CC(C)(C)COC(C)=O)c3ccc(Cl)cc32)c1OC [Test compound 1, N-{[(3R,5S)-1-(3-acetoxy-2,2-dimethylpropyl)-7-chloro-5-(2,3-dimethoxyphenyl)-2-oxo-1,2,3,5-tetrahydro-4,1-benzoxazepin-3-yl}acetyl}piperidine-4-acetic acid]
Distribution of Severity: − (no occurrence), count of limb xanthoma assessments [1]: 4
Distribution of Severity: +++ (mass), count of limb xanthoma assessments [1]: 0
Distribution of Severity: + (dotting of granule), count of limb xanthoma assessments [1]: 13
Distribution of Severity: ++ (scattering), count of limb xanthoma assessments [1]: 27
Distribution of Severity: − (no occurrence), count of limb xanthoma assessments [2]: 0
Distribution of Severity: +++ (mass), count of limb xanthoma assessments [2]: 0
Distribution of Severity: + (dotting of granule), count of limb xanthoma assessments [2]: 29
Distribution of Severity: ++ (scattering), count of limb xanthoma assessments [2]: 15
